Where a SMILES comes first, the peptide text is derived from it. [ ]: non-standard residue; d: D form. The star is where a group is joined. Decanoyl = CCCCCCCCCC(=O)*; Aib = CC(C)(N)C(=O)O
Tests used:
Assay type in all cases: cell-based
human GIPR = target: T1, human GIPR (Homo sapiens, UniProt P48546); experiment: cAMP assay (HitHunter) in transiently transfected COS-7 cells expressing human GIPR; conditions: for Emax: COS-7, normalized to highest concentration of the endogenous ligand, read-out: Efficacy GIPR (Emax); for EC50: cAMP, COS-7 cells, human GIPR
T1 construct: host or cells: COS-7
T1 sequence (P48546 22-466): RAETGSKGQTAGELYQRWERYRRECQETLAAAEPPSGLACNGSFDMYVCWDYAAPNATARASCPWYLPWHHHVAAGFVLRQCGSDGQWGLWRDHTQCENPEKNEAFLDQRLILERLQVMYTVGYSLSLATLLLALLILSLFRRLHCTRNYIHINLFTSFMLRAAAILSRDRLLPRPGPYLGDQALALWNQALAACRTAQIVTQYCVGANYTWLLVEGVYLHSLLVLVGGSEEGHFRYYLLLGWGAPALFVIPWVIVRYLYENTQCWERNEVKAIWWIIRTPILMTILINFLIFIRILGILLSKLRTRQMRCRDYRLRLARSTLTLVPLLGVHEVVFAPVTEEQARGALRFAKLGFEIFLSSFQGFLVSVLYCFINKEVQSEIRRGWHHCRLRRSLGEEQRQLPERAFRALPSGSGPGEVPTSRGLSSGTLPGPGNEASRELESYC

human GLP-2R = target: T2, human GLP-2R (Homo sapiens, UniProt O95838); experiment: cAMP assay (HitHunter) in transiently transfected COS-7 cells expressing human GLP-2R; conditions: for Emax: COS-7, normalized to highest concentration of the endogenous ligand, read-out: Efficacy GLP-2R (Emax)
T2 construct: host or cells: COS-7
T2 sequence (O95838 1-553): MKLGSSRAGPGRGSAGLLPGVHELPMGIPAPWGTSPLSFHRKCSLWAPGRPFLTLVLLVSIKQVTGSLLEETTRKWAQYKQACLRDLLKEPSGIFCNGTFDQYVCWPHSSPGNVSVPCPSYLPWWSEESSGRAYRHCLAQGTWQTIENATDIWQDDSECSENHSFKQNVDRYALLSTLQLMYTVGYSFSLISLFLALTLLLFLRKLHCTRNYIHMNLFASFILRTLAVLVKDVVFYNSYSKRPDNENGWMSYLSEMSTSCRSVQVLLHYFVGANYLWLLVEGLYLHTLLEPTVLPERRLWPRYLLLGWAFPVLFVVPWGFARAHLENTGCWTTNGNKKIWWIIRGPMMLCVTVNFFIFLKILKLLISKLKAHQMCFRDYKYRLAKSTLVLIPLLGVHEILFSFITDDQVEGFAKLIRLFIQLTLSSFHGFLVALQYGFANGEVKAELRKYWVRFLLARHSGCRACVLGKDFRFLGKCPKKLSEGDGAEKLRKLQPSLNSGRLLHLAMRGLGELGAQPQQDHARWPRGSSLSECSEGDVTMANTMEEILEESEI
Procedure: The next day the assay was initiated by washing with HEPES buffered saline (HBS) and followed by an incubation step with assay buffer (HBS added 1 mM isobutyl-1-methylxanthine (IBMX)) for 30 min at 37° C. The ligands were then added and incubated for an additional 30 min at 37° C. After ligand incubation, the HitHunter® CAMP assay (Eurofins DiscoverX, Fremont, […] USA) was carried out according to the manufacturer's instructions. […] The potencies (EC50 values) were determined by nonlinear regression using GraphPad Prism 9 (San Diego, California, USA). Sigmoid curves were fitted logistically. The efficacies (Emax values) were determined by normalization to the highest concentration applied of the endogenous ligand for each receptor.

human GLP-1R = target: T3, human GLP-1R (Homo sapiens, UniProt P43220); experiment: cAMP assay (HitHunter) in transiently transfected COS-7 cells expressing human GLP-1R; conditions: for Emax: COS-7, normalized to highest concentration of the endogenous ligand, read-out: Efficacy GLP-1R (Emax); for EC50: cAMP, COS-7 cells, human GLP-1R, read-out: EC50 (nM) GLP-1R
T3 construct: host or cells: COS-7
T3 sequence (P43220 24-463): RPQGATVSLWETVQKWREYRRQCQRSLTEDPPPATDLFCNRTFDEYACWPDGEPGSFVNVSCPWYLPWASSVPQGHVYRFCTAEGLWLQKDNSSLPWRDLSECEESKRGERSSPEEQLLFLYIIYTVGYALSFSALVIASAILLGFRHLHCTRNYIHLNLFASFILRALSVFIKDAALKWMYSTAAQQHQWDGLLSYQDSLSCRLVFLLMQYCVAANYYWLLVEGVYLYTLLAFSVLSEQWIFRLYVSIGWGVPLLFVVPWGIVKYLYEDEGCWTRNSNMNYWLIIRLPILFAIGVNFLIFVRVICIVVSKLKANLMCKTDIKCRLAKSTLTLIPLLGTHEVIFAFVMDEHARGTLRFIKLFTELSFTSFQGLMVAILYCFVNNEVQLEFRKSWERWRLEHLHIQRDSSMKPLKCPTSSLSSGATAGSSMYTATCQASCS

SMILES | Emax (human GIPR) [%] | EC50 (human GIPR) [nM] | Emax (human GLP-2R) [%] | Emax (human GLP-1R) [%] | EC50 (human GLP-1R) [nM] | EC50 (human GLP-2R; cAMP, COS-7 cells, human GLP-2R, read-out: EC50 (nM) GLP-2R) [nM]
CCCCCCCCCC(=O)NCCCC[C@H](NC(=O)[C@@H](NC(=O)[C@@H](NC(=O)[C@H](CCCCN)NC(=O)[C@@H](NC(=O)[C@H](CCC(N)=O)NC(=O)[C@@H](NC(=O)[C@H](CC(C)C)NC(=O)[C@H](Cc1c[nH]c2ccccc12)NC(=O)[C@H](CC(N)=O)NC(=O)[C@@H](NC(=O)[C@H](Cc1ccccc1)NC(=O)[C@H](CC(=O)O)NC(=O)[C@H](CCCNC(=N)N)NC(=O)[C@H](C)NC(=O)[C@H](C)NC(=O)[C@H](CC(C)C)NC(=O)[C@H](CC(N)=O)NC(=O)[C@H](CC(=O)O)NC(=O)[C@H](CC(C)C)NC(=O)[C@@H](NC(=O)[C@@H](NC(=O)[C@H](C)NC(=O)[C@H](Cc1ccc(O)cc1)NC(=O)[C@H](CC(=O)O)NC(=O)[C@H](CO)NC(=O)[C@@H](NC(=O)[C@H](Cc1ccccc1)NC(=O)[C@@H](NC(=O)CNC(=O)[C@H](CC(=O)O)NC(=O)C(C)(C)NC(=O)[C@@H](N)Cc1c[nH]cn1)[C@@H](C)O)[C@@H](C)CC)[C@@H](C)O)[C@@H](C)CC)[C@@H](C)CC)[C@@H](C)CC)[C@@H](C)O)[C@@H](C)CC)[C@@H](C)O)C(=O)O [Compound 3] (H-H[Aib]DGTFISDYATILDNLAARDFINWLIQTKITK(Decanoyl)-OH; N-terminus assumed) | 80 | 0.631 | 101 | 94 | 1.78 | 
CCCCCCCCCC(=O)N[C@@H](CCC(=O)NCCCC[C@H](NC(=O)[C@@H](NC(=O)[C@@H](NC(=O)[C@H](CCCCN)NC(=O)[C@@H](NC(=O)[C@H](CCC(N)=O)NC(=O)[C@@H](NC(=O)[C@H](CC(C)C)NC(=O)[C@H](Cc1c[nH]c2ccccc12)NC(=O)[C@H](CC(N)=O)NC(=O)[C@@H](NC(=O)[C@H](Cc1ccccc1)NC(=O)[C@H](CC(=O)O)NC(=O)[C@H](CCCNC(=N)N)NC(=O)[C@H](C)NC(=O)[C@H](C)NC(=O)[C@H](CC(C)C)NC(=O)[C@H](CC(N)=O)NC(=O)[C@H](CC(=O)O)NC(=O)[C@H](CC(C)C)NC(=O)[C@@H](NC(=O)[C@@H](NC(=O)[C@H](CO)NC(=O)[C@H](Cc1ccc(O)cc1)NC(=O)[C@H](CC(=O)O)NC(=O)[C@H](CO)NC(=O)[C@@H](NC(=O)[C@H](Cc1ccccc1)NC(=O)[C@@H](NC(=O)CNC(=O)[C@H](CC(=O)O)NC(=O)C(C)(C)NC(=O)[C@@H](N)Cc1c[nH]cn1)[C@@H](C)O)[C@@H](C)CC)[C@@H](C)O)[C@@H](C)CC)[C@@H](C)CC)[C@@H](C)CC)[C@@H](C)O)[C@@H](C)CC)[C@@H](C)O)C(N)=O)C(=O)O [Compound 17] | 97 |  | 92 | 107 |  | 
CCCCCCCCCC(=O)NCCCC[C@H](NC(=O)[C@@H](NC(=O)[C@@H](NC(=O)[C@H](CCCCN)NC(=O)[C@@H](NC(=O)[C@H](CCC(N)=O)NC(=O)[C@@H](NC(=O)[C@H](CC(C)C)NC(=O)[C@H](Cc1c[nH]c2ccccc12)NC(=O)[C@H](CC(N)=O)NC(=O)[C@@H](NC(=O)[C@H](Cc1ccccc1)NC(=O)[C@H](CC(=O)O)NC(=O)[C@H](CCCNC(=N)N)NC(=O)[C@H](C)NC(=O)[C@H](C)NC(=O)[C@H](CC(C)C)NC(=O)[C@H](CC(N)=O)NC(=O)[C@H](CCC(=O)O)NC(=O)[C@H](CC(C)C)NC(=O)[C@@H](NC(=O)[C@@H](NC(=O)[C@H](CO)NC(=O)[C@H](Cc1ccc(O)cc1)NC(=O)[C@H](CC(=O)O)NC(=O)[C@H](CO)NC(=O)[C@@H](NC(=O)[C@H](Cc1ccccc1)NC(=O)[C@@H](NC(=O)CNC(=O)[C@H](CC(=O)O)NC(=O)C(C)(C)NC(=O)[C@@H](N)Cc1c[nH]cn1)[C@@H](C)O)[C@@H](C)CC)[C@@H](C)O)[C@@H](C)CC)[C@@H](C)CC)[C@@H](C)CC)[C@@H](C)O)[C@@H](C)CC)[C@@H](C)O)C(N)=O [Compound 7] (H-H[Aib]DGTFISDYSTILENLAARDFINWLIQTKITK(Decanoyl)-NH2) | 96 | 0.794 | 97 | 95 | 2.82 | 
CCCCCCCCCC(=O)NCCCC[C@H](NC(=O)[C@@H](NC(=O)[C@@H](NC(=O)[C@H](CCCCN)NC(=O)[C@@H](NC(=O)[C@H](CCC(N)=O)NC(=O)[C@@H](NC(=O)[C@H](CC(C)C)NC(=O)[C@H](Cc1c[nH]c2ccccc12)NC(=O)[C@H](CCC(=O)O)NC(=O)[C@@H](NC(=O)[C@H](Cc1ccccc1)NC(=O)[C@H](CC(=O)O)NC(=O)[C@H](CCCNC(=N)N)NC(=O)[C@H](C)NC(=O)[C@H](C)NC(=O)[C@H](CC(C)C)NC(=O)[C@H](CC(N)=O)NC(=O)[C@H](CC(=O)O)NC(=O)[C@H](CC(C)C)NC(=O)[C@@H](NC(=O)[C@@H](NC(=O)[C@H](CO)NC(=O)[C@H](Cc1ccc(O)cc1)NC(=O)[C@H](CC(=O)O)NC(=O)[C@H](CO)NC(=O)[C@@H](NC(=O)[C@H](Cc1ccccc1)NC(=O)[C@@H](NC(=O)CNC(=O)[C@H](CC(=O)O)NC(=O)C(C)(C)NC(=O)[C@@H](N)Cc1c[nH]cn1)[C@@H](C)O)[C@@H](C)CC)[C@@H](C)O)[C@@H](C)CC)[C@@H](C)CC)[C@@H](C)CC)[C@@H](C)O)[C@@H](C)CC)[C@@H](C)O)C(N)=O [Compound 9] | 104 |  | 108 | 105 |  | 11.2

Source: patent publication US20250304644A1, “PEPTIDES TRIPLE AGONISTS OF GIP, GLP-1 AND GLP-2” (BAINAN BIOTECH APS, priority 2021, published 2025)
